# Experiments:
# [1] = system: defensin production in MDBK cells; assay: Defensin induction in MDBK cells (RNA-PCR / QPCR of β-defensin RNA); format: cell-based, bovine; settings: for effect on defensin production: at concentrations as high as fifty micrograms per milliliter
# Experimental: Cell Culture: MDBK (Madin-Darby Bovine Kidney) cells were obtained from the ATCC (Rockville, Md.) and were maintained in growth medium consisting of Eagle's modified essential media with Earle's balanced salt solution, 10% horse serum, 0.10 mM non-essential amino acids and no antibiotics. For stimulation experiments, cells were plated into six well tissue culture plates and maintained for three days in growth medium until cells were almost confluent. The medium was then changed to serum-free epithelial cell growth medium (Clonetics, San Diego, Calif.) and the test material was added to the dish. Twenty-four hours later, the medium was withdrawn and cells were rinsed with phosphate-buffered saline. Total RNA was then isolated using Trizol reagent (Gibco/BRL, Grand Island, N.Y.) according to protocols supplied by the manufacturer. RNA was quantified by measuring the OD260 of each sample.
# RNA-Polymerase Chain Reaction: Total RNA was treated with DNase prior to reverse transcription and PCR. The DNase was heat inactivated at 65° C. in the presence of EDTA for ten minutes. Reverse transcription and PCR were performed essentially as described for the GeneAmp RNA PCR kit (Perkin Elmer, Foster City, Calif.). Briefly, approximately 250 nanograms of total RNA was primed with polydT and reverse transcribed with Murine Leukemia Virus reverse transcriptase in a total volume of 16 μL at room temperature for ten minutes and then at 42° C. for an additional fifteen minutes. The reverse transcriptase was heat inactivated at 99° C. for five minutes and the reaction was chilled to 4 degrees C. This reverse transcription reaction was then split in half: one portion was used for amplification of the target defensin RNA, and the other was treated in parallel to determine the β-tubulin RNA level as a control. Additional reagents necessary for the PCR reaction, including appropriate synthetic DNA primers;
# were added after splitting the reverse transcription reactions to bring the reaction volumes to 40 μL. The reactions were then subjected to thermal cycling as follows: 95° C. for one minute, 52° C. for one minute, 72° C. for one minute for 30 cycles followed by a single 72° C. incubation for fifteen minutes to allow for extension. The expected 200 base pair β-defensin PCR product was measured by gel electrophoresis or QPCR (Quantitative PCR).
# Product Capture for QPCR System: 10 μL of the final PCR mixture was combined with 15 μL of strepavidin bead slurry (Perkin-Elmer, Foster City, Calif.), 21 μL H2O and 4 μL of 10× PCR buffer to yield a 50 μL binding reaction. The binding reactions were incubated at room temperature for fifteen minutes with occasional agitation. One ml of QPCR assay buffer was then added to the reaction. The quantity of PCR product was subsequently measured with the Perkin-Elmer QPCR instrument (Perkin-Elmer, Foster City, Calif.). The amount of defensin product was normalized to endogenous expression in MDBK cells in the absence of any experimental agent.
# [2] = system: defensin production in HT-29 cells; assay: Defensin induction in the human colon epithelial cell line HT-29; format: cell-based; settings: FIG. 5
# [3] = system: defensin production in epithelial cells; assay: Defensin inducing effect of isoleucine analogs in epithelial cells (FIGS. 6-9); format: cell-based; settings: for defensin induction: epithelial cells, FIGS. 6, 7 and 8
compound,measurement,setting,value
CC[C@H](C)[C@H](N)C(=O)O [L-isoleucine],dose-response effect on defensin production,[1]; FIG. 2,dose-dependent effect
same,"concentration increasing defensin production, fold less than that of D-isoleucine","[1]; L-isoleucine versus D-isoleucine, FIGS. 2 and 3",fifty to one-hundred
same,defensin induction,[2],defensin inducing property
"COC(=O)[C@@H](N)Cc1ccc(O)cc1 [L-tyrosine methyl ester, reference compound]",effect on defensin production,[1],no effect
CC(C)[C@H](N)C(=O)O [L-valine],effect on defensin production,[1],no effect
same,"stimulation of defensin expression, concentrations compared with isoleucine",[3]; FIG. 9,stimulates defensin expression at concentrations that are substantially higher than those needed for isoleucine
CC[C@@H](C)[C@H](N)C(=O)O [alloisoleucine],effectiveness as inducer of defensin production compared with isoleucine,[1]; FIG. 4,not as effective an inducer
CC[C@H](C)C(=O)C(=O)O [alpha-keto-methylvalerate],defensin induction,[3],inducers of defensin production
CC[C@H](C)[C@H](N)C(=O)NO [isoleucine hydroxamate],defensin induction,[3],inducers of defensin production
